The target in data set [1] is T1, Pgp (Mus musculus, UniProt P21447).
T1 construct: made in house; host or cells: Pichia pastoris
Kind of data set: Thermostability of purified Pgp in detergent solution (CPM dye fluorescence on heating). As to conditions: Pgp purified in 0.05% DDM containing 0.01% CHS (DDM/CHS); Pgp in DDM alone ~40 °C. As for the experimental part: Figure S1: CHS increases the thermostability of purified Pgp in DDM detergent solution.
Pgp was purified from microsomal membranes as detailed in Methods in either 0.05% DDM or 0.05% DDM containing 0.01% CHS (DDM/CHS). Samples were incubated with 2 µM of the cysteine-reactive dye 7-Diethylamino-3-(4'-maleimidylphenyl)-4-methylcoumarin (CPM), and the increase in fluorescence upon heating the samples with a temperature ramp of 1 °C/min was monitored with excitation/ emission wavelengths of 384/470 nm. Increase in fluorescence is due to protein unfolding and exposure of reactive cysteines in Pgp. The melting temperature Tm was ~40 °C for Pgp in DDM solution, similar to that reported for Pgp by other methods (Yang et al., […]
2017). […] Representatives of three independent experiments are shown.
(1 picture or pasted object on this page, not shown here)

Data set [2] has as its target T2, Mouse mdr1a Pgp (Mus musculus, UniProt P21447).
T2 construct: made in house; host or cells: Pichia pastoris
Kind of data set: Verapamil-stimulated ATPase activity of purified Pgp in DDM detergent activated with lipids (detergent-lipid micelles). It counts as biochemical. As to conditions: ATPase in the absence of verapamil; Pgp in DDM activated with 1% of the named lipid (Table 2). As for the experimental part: All purification buffers contained 50 mM Tris pH 8, 10% glycerol, and 500 mM NaCl (Buffer A). Detergent concentrations were reduced to 0.05% DDM during chromatography. Pgp was eluted from the Strep-Tactin superflow resin (Qiagen, Valencia, CA) in the presence of 1 mM DTT, 1 mM TCEP by competition with 4 mM desthiobiotin.

T1 sequence (P21447 whole entry): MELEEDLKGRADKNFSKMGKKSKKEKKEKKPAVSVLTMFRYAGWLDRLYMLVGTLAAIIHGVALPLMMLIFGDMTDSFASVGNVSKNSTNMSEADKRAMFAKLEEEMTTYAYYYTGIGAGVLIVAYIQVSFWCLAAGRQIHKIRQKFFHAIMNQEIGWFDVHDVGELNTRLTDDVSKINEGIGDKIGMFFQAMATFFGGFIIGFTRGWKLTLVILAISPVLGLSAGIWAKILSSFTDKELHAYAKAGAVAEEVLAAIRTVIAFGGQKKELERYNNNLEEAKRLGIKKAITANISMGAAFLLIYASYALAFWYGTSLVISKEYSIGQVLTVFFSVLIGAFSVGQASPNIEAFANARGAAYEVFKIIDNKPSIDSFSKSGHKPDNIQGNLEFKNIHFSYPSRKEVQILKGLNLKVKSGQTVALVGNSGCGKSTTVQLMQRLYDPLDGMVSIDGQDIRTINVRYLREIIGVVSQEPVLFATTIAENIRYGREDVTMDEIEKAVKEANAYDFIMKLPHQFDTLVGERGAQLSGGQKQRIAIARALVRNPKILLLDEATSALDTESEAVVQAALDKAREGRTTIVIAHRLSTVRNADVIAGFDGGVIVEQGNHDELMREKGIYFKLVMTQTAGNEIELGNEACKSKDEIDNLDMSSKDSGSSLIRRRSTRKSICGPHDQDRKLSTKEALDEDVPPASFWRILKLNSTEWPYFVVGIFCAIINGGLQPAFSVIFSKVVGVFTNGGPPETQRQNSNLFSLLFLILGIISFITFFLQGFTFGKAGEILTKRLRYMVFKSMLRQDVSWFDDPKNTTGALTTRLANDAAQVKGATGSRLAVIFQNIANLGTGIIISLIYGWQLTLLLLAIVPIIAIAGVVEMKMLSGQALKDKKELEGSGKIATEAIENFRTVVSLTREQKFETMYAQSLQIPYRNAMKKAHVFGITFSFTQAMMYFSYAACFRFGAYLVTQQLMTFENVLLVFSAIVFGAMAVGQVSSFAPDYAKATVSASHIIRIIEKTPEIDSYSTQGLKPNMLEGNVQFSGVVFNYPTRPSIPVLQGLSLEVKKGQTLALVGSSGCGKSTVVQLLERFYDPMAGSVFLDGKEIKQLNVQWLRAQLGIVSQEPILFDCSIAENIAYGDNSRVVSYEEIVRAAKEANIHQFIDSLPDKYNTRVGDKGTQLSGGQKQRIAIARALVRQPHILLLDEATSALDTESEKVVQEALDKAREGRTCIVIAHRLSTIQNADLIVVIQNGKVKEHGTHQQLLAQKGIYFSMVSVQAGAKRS
T2 sequence (P21447 whole entry): as above

Take `CC(C)CCC[C@@H](C)[C@H]1CC[C@H]2[C@@H]3CC=C4C[C@@H](OC(=O)CCC(=O)O)CC[C@]4(C)[C@H]3CC[C@]12C` [CHS, cholesteryl hemisuccinate]: the “melting temperature Tm of Pgp” value in data set [1] is 52 ºC.
In data set [2], `CCCCCCCC/C=C\CCCCCCCC(=O)O[C@H](COC(=O)CCCCCCCCCCCCCCC)COP(=O)([O-])OCC[N+](C)(C)C` [POPC only, 1-palmitoyl-2-oleoyl-sn-glycero-3-phosphocholine] returned a Basal activity of 0.05 µmol/min/mg.

These data come from paper PMC9995911, “Lipid environment determines the drug-stimulated ATPase activity of P-glycoprotein” (Frontiers in Molecular Biosciences, 2023).
